# Values joined by “and” are separate entries in the source; they are usually repeats but may differ in a detail not shown here. Identical values can stand only once. Like-named read-outs stand apart in the source and are kept apart here.
# Assays:
# Jurkats = assay: Labelling of cells using compounds (staining/uptake); assay type: cell-based
# Description: (§1) 2. Labelling of Cells Using Compounds Useful in Methods of the Invention
# Hela = assay: as above; assay type: cell-based
# Description: as §1
# CHO = assay: as above; assay type: cell-based
# Description: as §1
# MDA-MB468 = assay: as above; assay type: cell-based
# Description: as §1
# Epithelial cells = assay: as above; assay type: cell-based
# Description: as §1
# U937 = assay: as above; assay type: cell-based
# Description: as §1
# WBCs [1] = assay: as above; assay type: cell-based
# Description: as §1
# NIH 3T3 = assay: as above; assay type: cell-based
# Description: as §1
# COS 7 = assay: as above; assay type: cell-based
# Description: as §1
# WBC [2] = assay: WBC recovery rate after centrifugation (cell stabilization, Example 5); assay type: cell-based; settings: Centrifugation: 20 min, 300×g; 10 min, 1 h, 2 h incubation
# Experimental: A) WBC Recovery Rate after Centrifugation and Cell Immobilization Using Different Molecules
# Centrifugation characteristics: 10 min, 300×g.
# B) WBC Recovery Rate after Centrifugation Using Different Compounds—Different Points of Time
# Centrifugation characteristics: 10 min, 300×g. A: Choleseryl-TEG-Cholesteryl-TEG-(SpacerC18)7-Fluos-Biotin-TEG.
# C) WBC Recovery Rate after Centrifugation—Different Experimenters
# Centrifugation characteristics: 10 min, 300×g. Molecule: Cholesteryl-TEG-Cholesteryl-TEG-(SpacerC18)7-Fluos-Biotin-TEG.
# D) WBC Recovery Rate after Centrifugation—Different Points of Time and Centrifugation Settings
# Centrifugation characteristics: 20 min, 300×g.
# WBC [3] = assay: as above; assay type: cell-based; settings: Centrifugation: 20 min, 500×g
# WBCs [4] = assay: Immobilization of cells: recovery rate of cells on SA (streptavidin) plate or untreated plate (Example 3); assay type: cell-based
# Experimental: The following applies for modular description of the compounds below: X=hydrophobic moiety, […]=fluorescein In the following experiment, the recovery rate of cells was determined.
# white blood cells (WBCs) = system: white blood cells (WBCs)
# Experimental: In particular, the performance of a single cholesterol-molecule and different dual-linker molecules (i.e. containing two hydrophobic moieties) was tested. In detail, immobilization of white blood cells (WBCs) on a Streptavidin-coated surface using different linker molecules was tested on a 12-well plate: 300 000 WBCs/well. This was followed by the measurement of the cell recovery rate after immobilization and washing of the cells using the Cellavista instrument (10× Nuclei Operator s9s5).
# MDAs in WBCs = assay: Immobilization of cells: recovery rate of MDAs spiked in WBCs on SA-plate (Example 3); assay type: cell-based
# Experimental: The following applies for modular description of the compounds below:
# X=hydrophobic moiety, Y=PEG2000, Z=Biotin-TEG, F=Fluos=fluorescein
# In the following experiment, the recovery rate of cells was determined.
# [5] = Sample 1, first block (concentration not given), 300 000 WBCs/well
# [6] = Sample 2, compound concentration: 100 pmol/10e6 WBCs
# [7] = Sample 2, compound concentration: 1 nmol/10e6 WBCs
molecule,measurement,setting,value
"CCCCCCCCCCCCCCCCCCN1C(=CC=CC2=[N+](CCCCCCCCCCCCCCCCCC)c3ccccc3C2(C)C)C(C)(C)c2ccccc21.[O-][Cl+3]([O-])([O-])[O-] [1,1′-Dioctadecyl-3,3,3′,3′-tetramethylindocarbocyanin perchlorate]",Labelling (staining/uptake) of cells,Jurkats,✓
same,Labelling (staining/uptake) of cells,Hela,✓
same,Labelling (staining/uptake) of cells,CHO,✓
same,Labelling (staining/uptake) of cells,MDA-MB468,✓
same,Labelling (staining/uptake) of cells,Epithelial cells,✓
same,Labelling (staining/uptake) of cells,U937,✓
same,Labelling (staining/uptake) of cells,WBCs [1],✓ not all
same,Labelling (staining/uptake) of cells,NIH 3T3,✓*
same,Labelling (staining/uptake) of cells,COS 7,✓
3′-(Myristic acid)2-PEG2000-dT-Biotin-TEG-5′ INVERS [compound 1255],"WBC recovery rate after centrifugation, performance ranking",WBC [2],followed by compound 1255 and 1254
same,"WBC recovery rate after centrifugation, performance ranking",WBC [3],followed by molecule 1255 and 1254
CCCCCCCCCCCCCCCCCCCCCC[N+]1=C(/C=C/C=C2/N(CCCCCCCCCCCCCC)c3ccccc3C2(C)C)C(C)(C)c2ccccc21.[I-] [PKH26],Labelling (staining/uptake) of cells,Jurkats,✓
same,Labelling (staining/uptake) of cells,Hela,✓*
same,Labelling (staining/uptake) of cells,CHO,✓
same,Labelling (staining/uptake) of cells,MDA-MB468,✓
same,Labelling (staining/uptake) of cells,Epithelial cells,✓ not all
same,Labelling (staining/uptake) of cells,U937,✓
same,Labelling (staining/uptake) of cells,NIH 3T3,✓
same,Labelling (staining/uptake) of cells,COS 7,✓
5′-CholesterylTEG-CholesterylTEG-PEG2000-Fluos-3′ [29.891133],Labelling (staining/uptake) of cells,Jurkats,✓
same,Labelling (staining/uptake) of cells,Hela,✓
same,Labelling (staining/uptake) of cells,CHO,✓
same,Labelling (staining/uptake) of cells,MDA-MB468,✓
same,Labelling (staining/uptake) of cells,Epithelial cells,✓
same,Labelling (staining/uptake) of cells,U937,✓
same,Labelling (staining/uptake) of cells,NIH 3T3,✓
same,Labelling (staining/uptake) of cells,COS 7,✓
5′-(Cholesteryl-TEG)2-Spacer C18-Fluos-Biotin_TEG-3′ INVERS [29.891254],"WBC recovery rate after centrifugation, performance ranking",WBC [2],followed by compound 1255 and 1254
same,"WBC recovery rate after centrifugation, performance ranking",WBC [3],followed by molecule 1255 and 1254
same,Recovery Rate,WBCs [4]; 10 pmol/10e6 cells,40.30%
same,Recovery Rate,WBCs [4]; 100 pmol/10e6 cells,64.60% and 57.63% and 65.69% and 70.07% and 81.28%
same,Recovery Rate,WBCs [4]; 1 nmol/10e6 cells,92.50% and 82.19% and 81.79% and 74.68%
same,Recovery Rate,WBCs [4]; 10 nmol/10e6 cells,83.60%
same,Recovery Rate,white blood cells (WBCs); [5],57.63%
same,cells counted per well,white blood cells (WBCs); [5],157660 and 190148 and 170850
same,Recovery Rate,"white blood cells (WBCs); Sample 1, compound concentration: 1 nmol/10e6 WBCs",82.19%
same,cells counted per well,"white blood cells (WBCs); Sample 1, compound concentration: 1 nmol/10e6 WBCs, 300 000 WBCs/well",244649 and 234262 and 260760
same,Mean (cells counted per well),white blood cells (WBCs); [6],197067.00
same,Recovery Rate,white blood cells (WBCs); [6],65.69%
same,cells counted per well,"white blood cells (WBCs); Sample 2, compound concentration: 100 pmol/10e6 WBCs, 300 000 WBCs/well",205917 and 185100 and 200184
same,Mean (cells counted per well),white blood cells (WBCs); [7],245376.00
same,Recovery Rate,white blood cells (WBCs); [7],81.79%
same,cells counted per well,"white blood cells (WBCs); Sample 2, compound concentration: 1 nmol/10e6 WBCs, 300 000 WBCs/well",247428 and 244396 and 244304
5′-CholesterylTEG-CholesterylTEG-PEG2000-Fluos-BiotinTEG-3′ [29.891180],Recovery rate treated cells (SA-plate),WBCs [4]; 2.16 μg/2 × 10e6 WBCs,78.6%
same,Recovery rate treated cells (SA-plate),WBCs [4]; 21.6 μg/2 × 10e6 WBCs,68.6%
same,Recovery rate treated cells (SA-plate),WBCs [4]; 216 μg/2 × 10e6 WBCs,50.1%
same,Recovery rate treated cells (SA-plate),WBCs [4]; 5 × 10e5 WBCs (MDA spiking experiment),70.0% and 70.8%
same,Recovery rate treated cells (SA-plate),WBCs [4]; 10e6 WBCs (MDA spiking experiment),69.4%
same,Recovery rate treated cells (SA-plate),WBCs [4]; 200 μl Zellsus.,67.6% and 71.9%
same,Recovery rate treated cells (SA-plate),WBCs [4]; 400 μl Zellsus.,78.4% and 84.1%
same,Recovery rate treated cells (SA-plate),WBCs [4]; 10 min 4° C.,81.6%
same,Recovery rate treated cells (SA-plate),WBCs [4]; 10 min RT,88.3%
same,Recovery rate treated cells (SA-plate),WBCs [4]; 800 μl Zellsus.,81.1% and 86.4%
same,Recovery rate treated cells (SA-plate),WBCs [4]; 60 min 4° C.,81.7%
same,Recovery rate treated cells (SA-plate),WBCs [4]; 60 min RT,85.5%
same,Recovery rate treated cells (untreated-plate),"WBCs [4]; cells treated with compound, untreated plate",56.7%
same,Recovery rate treated cells (SA-plate),MDAs in WBCs; 10e4 MDAs in WBCs,99.0%
same,Recovery rate treated cells (SA-plate),MDAs in WBCs; 20e3 MDAs in WBCs,102.0%
same,Recovery rate treated cells (SA-plate),MDAs in WBCs; 40e3 MDAs in WBCs,102.0%
5′-CholesterylTEG-CholesterylTEG-(SpacerC18)7-dT(Determ. of concentration)-BiotinTEG-3′ [compound 1234],"WBC recovery rate after centrifugation, performance ranking",WBC [2],best performance
same,"WBC recovery rate after centrifugation, performance ranking",WBC [3],best performance
same,Recovery Rate,WBCs [4]; 10 pmol/10e6 cells,9.6%
same,Recovery Rate,WBCs [4]; 100 pmol/10e6 cells,18.8%
same,Recovery Rate,WBCs [4]; 300 pmol/10e6 cells,26.8%
same,Recovery Rate,WBCs [4]; 500 pmol/10e6 cells,24.9%
same,Recovery Rate,WBCs [4]; 10 nmol/10e6 cells,99.7%
same,Recovery Rate,"WBCs [4]; WBCs, 350 pmol/10e6 cells, 0.000003% Tween21",13.0% and 25.0%
same,Recovery Rate,"WBCs [4]; WBCs, 350 pmol/10e6 cells, 0.00001% Tween20",14.0% and 23.0%
same,Recovery Rate,"WBCs [4]; WBCs, 350 pmol/10e6 cells, 0.00003% Tween20",12.0% and 20.0%
same,Recovery Rate,"WBCs [4]; WBCs, 350 pmol/10e6 cells, 0.00003% Tween22",22.0% and 36.0%
same,Recovery Rate,"WBCs [4]; WBCs, 350 pmol/10e6 cells, 0.0001% Tween21",22.0% and 28.0%
same,Recovery Rate,"WBCs [4]; WBCs, 350 pmol/10e6 cells, 0.0003% Tween20",12.0% and 18.0%
same,Recovery Rate,"WBCs [4]; WBCs, 350 pmol/10e6 cells, 0.001% Tween20",10.0% and 15.0%
same,Recovery Rate,"WBCs [4]; WBCs, 350 pmol/10e6 cells, 1:1 diluted",22.0% and 25.0%
same,Recovery Rate,"WBCs [4]; WBCs, 350 pmol/10e6 cells, US + 10′ 98° C.",27.0% and 23.0%
same,Recovery Rate,"WBCs [4]; WBCs, 350 pmol/10e6 cells, not evaporated, VIVA Spin",18.0% and 19.0%
same,Recovery Rate,"WBCs [4]; WBCs, 350 pmol/10e6 cells, untreated",17.0% and 13.0%
same,Recovery Rate,"WBCs [4]; WBCs, 1000 pmol/10e6 cells",35.4%
same,Recovery Rate,"WBCs [4]; WBCs, 1000 pmol/10e6 cells, not evaporated, VIVA Spin",42.0% and 45.0%
"CCCCCCCCCCCCC/C=C/[C@@H](O)[C@H](COP(=O)([O-])OCC[N+](C)(C)C)NC(=O)CCCCc1ccc2n1[B-](F)(F)[N+]1=C(C)C=C(C)C1=C2 [Sphingomyelin, N-(4,4-difluoro-5,7-dimethyl-4-bora-3a,4a-diaza-s-indacene-3-pentanoyl)sphingosyl phosphocholine]",Labelling (staining/uptake) of cells,Hela,✓
same,Labelling (staining/uptake) of cells,CHO,x very weak
same,Labelling (staining/uptake) of cells,Epithelial cells,✓
same,Labelling (staining/uptake) of cells,WBCs [1],(x)- very bad
"CCCCC/C=C\C/C=C\CCCCCCCCN1C(=CC=CC2=[N+](CCCCCCCC/C=C\C/C=C\CCCCC)c3ccccc3C2(C)C)C(C)(C)c2ccccc21.[O-][Cl+3]([O-])([O-])[O-] [Linol, 1,1′-dilinoleyl-3,3,3′,3′-tetramethylindocarbocyanine perchlorate]",Labelling (staining/uptake) of cells,Jurkats,✓
same,Labelling (staining/uptake) of cells,Hela,✓
same,Labelling (staining/uptake) of cells,CHO,✓
same,Labelling (staining/uptake) of cells,MDA-MB468,✓
same,Labelling (staining/uptake) of cells,Epithelial cells,✓
same,Labelling (staining/uptake) of cells,U937,✓
same,Labelling (staining/uptake) of cells,NIH 3T3,✓
same,Labelling (staining/uptake) of cells,COS 7,✓
